The data set is described as follows: log p (partition coefficient octanol/water, determined experimentally from reversed phase HPLC). The format is physicochemical. The following applies: for chromatographic logP: reversed phase hplc. From the text:
[log p=logarithm of the partition coefficient p of the substance between the solvents octanol and water, determined experimentally from reversed phase HPLC]

Read-outs that look alike come from different tables or passages of the source.

Turning to `CCON=C(C)C(C)Oc1ccc(-c2ccc(C3COC(c4c(F)cccc4F)=N3)cc2)cc1` (single isomer, unassigned) [Example 70], the chromatographic logP is 5.12.

Compound `CCON=C(C)C(C)Oc1ccc(-c2ccc(C3COC(c4ccccc4Cl)=N3)cc2)cc1` (single isomer, unassigned) [Example 85] showed a chromatographic logP of 5.4.

On to `CCOC(=O)C(C)Oc1ccc(-c2ccc(C3COC(c4c(F)cccc4F)=N3)cc2)cc1` (stereo not shown) [Example 3, 2-(2,6-difluorophenyl)-4-[4'-(1-ethoxycarbonyl-eth-1-yl-oxy)-biphenyl-4-yl]-1,3-oxazoline], for which the chromatographic logP was 4.12.

Regarding `CCOC(=O)C(CC)Oc1ccc(-c2ccc(C3COC(c4c(F)cccc4F)=N3)cc2)cc1` (stereo not shown) [Example 11], the chromatographic logP stood at 4.53.

For the compound `CCOC(=O)C(C)Oc1ccc(-c2ccc(C3COC(c4c(F)cccc4F)=N3)cc2)cc1` (stereo not shown) [Example 12], the log p worked out at 3.80.

The compound `CCN(CC)C(=O)COc1ccc(-c2ccc(C3COC(c4c(F)cccc4F)=N3)cc2)cc1` (stereo not shown) [Example 15] returned a chromatographic logP of 3.35.

For `CC(C)C(C#N)Oc1ccc(-c2ccc(C3COC(c4c(F)cccc4F)=N3)cc2)cc1` (stereo not shown) [Example 17], the chromatographic logP was 4.45.

For `CCC(Oc1ccc(-c2ccc(C3COC(c4c(F)cccc4F)=N3)cc2)cc1)C(=O)OC` (stereo not shown) [Example 19], the chromatographic logP was determined as 4.18.

As to `CON=C(C)C(C)Oc1ccc(-c2ccc(C3COC(c4c(F)cccc4F)=N3)cc2)cc1` (stereo not shown) [Example 23], the chromatographic logP came to 4.62 (A isomer) and 4.71 (B isomer).

Regarding `CO/N=C(/COc1ccc(-c2ccc(C3COC(c4c(F)cccc4F)=N3)cc2)cc1)C1CC1` (stereo not shown) [Example 24], the chromatographic logP (E isomer) was 4.9.

`CCON=C(C)COc1ccc(-c2ccc(C3COC(c4c(F)cccc4F)=N3)cc2)cc1` (stereo not shown) [Example 25] showed a chromatographic logP (B isomer) of 4.76.

As for `CON=C(COc1ccc(-c2ccc(C3COC(c4c(F)cccc4F)=N3)cc2)cc1)C1CC1` (stereo not shown) [Example 26], the chromatographic logP amounted to 4.9 (A isomer) and 4.56 (B isomer).

On to `CON=C(COc1ccc(-c2ccc(C3COC(c4c(F)cccc4F)=N3)cc2)cc1)c1ccccc1` (stereo not shown) [Example 27], for which the chromatographic logP (A isomer) is 4.74.

In turn, `CON(C)C(=O)COc1ccc(-c2ccc(C3COC(c4c(F)cccc4F)=N3)cc2)cc1` (stereo not shown) [Example 34] gave a chromatographic logP of 3.07.

Take `CCOC(COc1ccc(-c2ccc(C3COC(c4c(F)cccc4F)=N3)cc2)cc1)OCC` (stereo not shown) [Example 43]: the chromatographic logP was determined as 4.44.

Consider `C=CCN(CC=C)C(=O)COc1ccc(-c2ccc(C3COC(c4c(F)cccc4F)=N3)cc2)cc1` (stereo not shown) [Example 47], for which the chromatographic logP was determined as 3.76.

In the case of `CCON=C(C)C(C)Oc1ccc(-c2ccc(C3COC(c4c(F)cccc4F)=N3)cc2)cc1` (stereo not shown) [Example 48], the chromatographic logP by setting is: (A isomer) 5.02; (B isomer) 5.13.

`O=C(COc1ccc(-c2ccc(C3COC(c4ccccc4Cl)=N3)cc2)cc1)c1ccccc1` (stereo not shown) [Example 49] came in with a chromatographic logP of 4.38.

`CON=C(COc1ccc(-c2ccc(C3COC(c4ccccc4Cl)=N3)cc2)cc1)c1ccccc1` (stereo not shown) [Example 52]: the chromatographic logP turned out to be 5.4.

Regarding `O=C(COc1ccc(-c2ccc(C3COC(c4c(F)cccc4F)=N3)cc2)cc1)C1(Cl)CC1` (stereo not shown) [Example 54], the chromatographic logP amounted to 4.04.

Consider `CON=C(COc1ccc(-c2ccc(C3COC(c4c(F)cccc4F)=N3)cc2)cc1)C1(Cl)CC1` (stereo not shown) [Example 55], for which the chromatographic logP amounted to 5.09 (A isomer) and 4.78 (B isomer).

As for `CCON=C(COc1ccc(-c2ccc(C3COC(c4c(F)cccc4F)=N3)cc2)cc1)C1CC1` (stereo not shown) [Example 56], the chromatographic logP by setting is: (A isomer) 5.28; (B isomer) 4.92.

In the case of `CCON=C(COc1ccc(-c2ccc(C3COC(c4c(F)cccc4F)=N3)cc2)cc1)C1(Cl)CC1` (stereo not shown) [Example 57], the chromatographic logP reads like this: (A isomer) 5.49; (B isomer) 4.85.

As for `CCON=C(C)C(C)Oc1ccc(-c2ccc(C3COC(c4ccccc4Cl)=N3)cc2)cc1` (stereo not shown) [Example 59], the chromatographic logP is, setting by setting: (A isomer) 5.44; (B isomer) 5.56.

`CCCCC(Oc1ccc(-c2ccc(C3COC(c4c(F)cccc4F)=N3)cc2)cc1)C(=O)OCC` (stereo not shown) [Example 61] had a chromatographic logP of 5.24.

Turning to `CCON=C(C)C(C)Oc1ccc(-c2ccc(C3COC(c4c(F)cccc4Cl)=N3)cc2)cc1` (stereo not shown) [Example 62], the chromatographic logP was found to be 5.31 (A isomer) and 5.42 (B isomer).

On to `CC(=NO)C(C)Oc1ccc(-c2ccc(C3COC(c4c(F)cccc4F)=N3)cc2)cc1` (stereo not shown) [Example 64], for which the chromatographic logP is, setting by setting: (A isomer) 3.48; (B isomer) 3.54.

`CCON=C(CC)COc1ccc(-c2ccc(C3COC(c4c(F)cccc4F)=N3)cc2)cc1` (stereo not shown) [Example 66] showed a chromatographic logP (A isomer) of 4.98 and a chromatographic logP (B isomer) of 4.9.

`CCON=C(COc1ccc(-c2ccc(C3COC(c4c(F)cccc4F)=N3)cc2)cc1)C1CC1` (stereo not shown) [Example 67] gave a log p (A isomer) of 4.72 and a log p (B isomer) of 4.61.

Compound `CC(C)C(C)(C)C(=O)COc1ccc(-c2ccc(C3COC(c4c(F)cccc4F)=N3)cc2)cc1` (stereo not shown) [Example 68] registered a chromatographic logP of 4.55.

Take `CC(=NOC(C)C)C(C)Oc1ccc(-c2ccc(C3COC(c4c(F)cccc4F)=N3)cc2)cc1` (stereo not shown) [Example 69]: the chromatographic logP was 4.47.

`CC(C)(C(=O)COc1ccc(-c2ccc(C3COC(c4c(F)cccc4F)=N3)cc2)cc1)C(Cl)Cl` (stereo not shown) [Example 71]: the chromatographic logP was 4.55.

Turning to `CCON=C(COc1ccc(-c2ccc(C3COC(c4c(F)cccc4F)=N3)cc2)cc1)C(C)C` (stereo not shown) [Example 78], the chromatographic logP worked out at 5.72 (A isomer) and 5.49 (B isomer).

On to `CCON=C(COc1ccc(-c2ccc(C3COC(c4c(F)cccc4F)=N3)cc2)cc1)C(C)(C)C` (stereo not shown) [Example 79], for which the chromatographic logP was 5.95.

As to `CC(COc1ccc(-c2ccc(C3COC(c4c(F)cccc4F)=N3)cc2)cc1)=NOC(C)C` (stereo not shown) [Example 80], the chromatographic logP is 5.1 (A isomer) and 5.17 (B isomer).

`CCON=C(C)COc1ccc(-c2ccc(C3COC(c4c(F)cccc4Cl)=N3)cc2)cc1` (stereo not shown) [Example 81]: the chromatographic logP came to 4.98.

Turning to `CC(COc1ccc(-c2ccc(C3COC(c4c(F)cccc4F)=N3)cc2)cc1)=NOCc1ccccc1` (stereo not shown) [Example 82], where the note is “A isomer”, the chromatographic logP is 5.15.

In the case of `CCON=C(C)COc1ccc(-c2ccc(C3COC(c4c(F)cccc4F)=N3)cc2)cc1` (stereo not shown) [Example 83], where the note is “B isomer”, the log p is 5.56. For the setting “A isomer”, this compound yielded a chromatographic logP of 5.49.

Take `CON=C(C)COc1ccc(-c2ccc(C3COC(c4c(F)cccc4F)=N3)cc2)cc1Cl` (stereo not shown) [Example 86]: the chromatographic logP is 4.79 (A isomer) and 4.7 (B isomer).

Consider `CCON=C(C)COc1ccc(-c2ccc(C3COC(c4c(F)cccc4F)=N3)cc2)cc1Cl` (stereo not shown) [Example 87], for which the chromatographic logP reads like this: (A isomer) 5.39; (B isomer) 5.19.

With `C=CCON=C(C)C(C)Oc1ccc(-c2ccc(C3COC(c4c(F)cccc4F)=N3)cc2)cc1` (stereo not shown) [Example 88], the chromatographic logP by setting is: (A isomer) 5.04; (B isomer) 5.13.

In the case of `C=CCON=C(C)COc1ccc(-c2ccc(C3COC(c4c(F)cccc4F)=N3)cc2)cc1` (stereo not shown) [Example 89], the chromatographic logP is, setting by setting: (A isomer) 4.78; (B isomer) 4.72.

`CCCC(C#N)Oc1ccc(-c2ccc(C3COC(c4c(F)cccc4F)=N3)cc2)cc1Cl` (stereo not shown) [Example 91] registered a chromatographic logP of 4.87.

As for `O=C(COc1ccc(-c2ccc(C3COC(c4c(F)cccc4Cl)=N3)cc2)cc1)c1ccccc1` (stereo not shown) [Example 93], the chromatographic logP came to 4.28.

On to `CON=C(COc1ccc(-c2ccc(C3COC(c4c(F)cccc4Cl)=N3)cc2)cc1)c1ccccc1` (stereo not shown) [Example 94], for which the chromatographic logP worked out at 5.25.

As to `CC(C#N)Oc1ccc(-c2ccc(C3COC(c4c(F)cccc4F)=N3)cc2)cc1Cl` (stereo not shown) [Example 95], the chromatographic logP is 4.06.

`CCOC(CCOc1ccc(-c2ccc(C3COC(c4c(F)cccc4F)=N3)cc2)cc1Cl)OCC` (stereo not shown) [Example 97]: the chromatographic logP is 5.12.

`CC1(COc2ccc(-c3ccc(C4COC(c5c(F)cccc5F)=N4)cc3)cc2)OCCO1` (stereo not shown) [Example 98] had a chromatographic logP of 3.77.

Compound `CCON=C(C)C(C)(C)Oc1ccc(-c2ccc(C3COC(c4c(F)cccc4F)=N3)cc2)cc1` (stereo not shown) [Example 99] returned a chromatographic logP of 5.57.

In turn, `CON=C(C)C(C)(C)Oc1ccc(-c2ccc(C3COC(c4c(F)cccc4F)=N3)cc2)cc1` (stereo not shown) [Example 100] had a chromatographic logP of 5.14.

In turn, `CC(=O)C(C)Oc1ccc(-c2ccc(C3COC(c4c(F)cccc4F)=N3)cc2)cc1Cl` (stereo not shown) [Example 101] had a chromatographic logP of 4.15.

`CC(C)C(C#N)Oc1ccc(-c2ccc(C3COC(c4c(F)cccc4F)=N3)cc2)cc1Cl` (stereo not shown) [Example 102] came in with a chromatographic logP of 4.84.

`CON=C(c1cccc(C(F)(F)F)c1)C(C)Oc1ccc(-c2ccc(C3COC(c4c(F)cccc4F)=N3)cc2)cc1` (stereo not shown) [Example 106] registered a chromatographic logP of 5.5.

Compound `CON=C(c1ccccc1F)C(C)Oc1ccc(-c2ccc(C3COC(c4c(F)cccc4F)=N3)cc2)cc1` (stereo not shown) [Example 108] yielded a chromatographic logP of 5.01.

Regarding `CON=C(COc1ccc(-c2ccc(C3COC(c4c(F)cccc4F)=N3)cc2)cc1)c1ccc(C(F)(F)F)cc1` (stereo not shown) [Example 111], the chromatographic logP stood at 5.53.

Regarding `CCON=C(COc1ccc(-c2ccc(C3COC(c4c(F)cccc4F)=N3)cc2)cc1)c1ccc(C(F)(F)F)cc1` (stereo not shown) [Example 112], the chromatographic logP reads like this: (A isomer) 5.87; (B isomer) 5.57.

In turn, `CC(=O)C(C)Oc1ccc(-c2ccc(C3COC(c4ccccc4Cl)=N3)cc2)cc1Cl` (stereo not shown) [Example 113] came in with a chromatographic logP of 4.51.

For the compound `O=C(COc1ccc(-c2ccc(C3COC(c4c(F)cccc4F)=N3)cc2)cc1)c1ccc(OC(F)F)cc1` (stereo not shown) [Example 114], the chromatographic logP was 4.16.

Regarding `CON=C(COc1ccc(-c2ccc(C3COC(c4c(F)cccc4F)=N3)cc2)cc1)c1cccc(Cl)c1` (stereo not shown) [Example 115], the chromatographic logP was found to be 5.52 (A isomer) and 5.19 (B isomer).

A word on the chromatographic logP: it is lipophilicity estimated from chromatographic retention. Read a high chromatographic logP as higher lipophilicity.

The values are drawn from patent publication US6211214A, “Biphenyl ether oxazolines and their use as pest-control agents” (Bayer Aktiengesellschaft, priority 1995, dated 2001).
